We go through two molecules from paper PMC9695592, “Phenotypic Evaluation of Nucleoside Analogues against Trypanosoma cruzi Infection: In Vitro and In Vivo Approaches” (Molecules, 2022).

Each structure is given as a SMILES string. “Also recorded” adds a separate entry of the source.

Assay [1] deals with T. cruzi (Tulahuen strain) in L929. As to the kind of experiment: Washout assay in T. cruzi-infected L929 cultures (Tulahuen strain). It counts as cell-based, Trypanosoma cruzi. The conditions noted are these: 10 μM for seven days, then seven days drug-free medium; light microscopy. The procedure: To explore in vitro parasitic exhaustion, T. cruzi-infected L929 cultures were incubated for seven days with the compounds at 10 μM. Then, fresh drug-free medium was added and replaced every 48 h. After seven days of incubation, the number of released parasites into the supernatant was quantified by light microscopy.
T. cruzi-infected L929 cultures (using the Tulahuen-β gal strain) were exposed or not to 10 µM of each nucleoside derivative, and the RPMI culture medium (containing the tested compounds) replaced every 48 h. After seven days of incubation, the cultures were rinsed with 0.1 M phosphate buffered saline (PBS), and drug-free culture medium was added for another seven days of incubation, replacing the drug-free medium every 48 h. Parasites released into the supernatant of the cell cultures were quantified using light microscopy, and the parasite burden into the infected cultures was analyzed by adding the substrate CPRG (chlorophenol red ß-D-galactopyranoside) followed by spectrophotometric measurements at 570 nm. The results were expressed as percentage of reduction in parasite growth compared to untreated cells, and EC50 values were calculated. Bz was used as a positive control. The data results from two independent experiments done in at least duplicate.

The subject of assay [2] is intracellular forms of T. cruzi. Further details: method as in PMID 20428688. The conditions noted are these: read-out: EC90 value of Bz against the intracellular forms of T. cruzi; cited from earlier work.

As to `Nc1ncnc2c1c(-c1ccc(Cl)c(F)c1)cn2[C@@H]1O[C@H](CO)[C@@H](O)[C@H]1O` [FH10714, 7-(3-fluoro,4-chlorophenyl)tubercidin], the “parasites released into the supernatant after washout” value in assay [1] was “sterilized the infected cultures; also recorded: cleared the parasitism; also recorded: eliminated the parasitism”.
As a reminder, the EC90 is the concentration needed for an effect of 90%. As for `O=C(Cn1ccnc1[N+](=O)[O-])NCc1ccccc1` [Bz, Benznidazole, reference compound], the concentration for an effect of 90% (EC90) in assay [2] was 10 µM.
